Laboratory results taken from patent US10421964B2, “UNA oligomers and compositions for treating amyloidosis” (Arcturus Therapeutics, Inc., priority 2015, dated 2019).
[UNA] = unlocked nucleic acid; m = 2'-O-methyl; r = 2'-OH (RNA)

Key:
[1] = lipid; cited from earlier work
[2] = tested on: V30M gene reporter variant (nucleotide sequence 264 to 304 of human TTR containing the point mutation at position 284); test: PSICHECK reporter assay against V30M gene reporter variant; type: cell-based; conditions: for selectivity against V30M over V30V: IC50 against V30V over IC50 against V30M; for IC50: V30M gene reporter variant; for effectiveness against V30M compared with V30V: V30V and V30M gene reporter variants
Protocol: (§1) Conventional siRNAs that are complementary to the […] mRNA were tiled around position 284. […] Positions 5, 9, 14 and 15 appear to be more accessible to silencing than other positions. […] Four conventional siRNA variations, namely V30M-P5, V30M-P9, V30M-P14, and V30M-P15, were prepared.
(§2) Thus, the selectivity of the conventional siRNAs against V30M over V30V was no more than 5.6.

[3] = tested on: V30V gene reporter variant (nucleotide sequence 264 to 304 of human TTR without the point mutation at position 284); test: PSICHECK reporter assay against V30V gene reporter variant; type: cell-based
Protocol: as §1, §2

Transthyretin TTR mRNA = test: Knockdown of TTR protein in plasma of Cynomolgus monkeys after single IV dose of liposomal UNA oligomer (LC-MS/MS SRM); type: in vivo, Cynomolgus monkeys (Macaca fascicularis)
Protocol: A single-dose, pharmacokinetic and pharmacodynamic study of liposomally formulated UNA Oligomers targeting transthyretin (TTR) mRNA following intravenous infusion in Cynomolgus monkeys was performed.
Cynomolgus monkeys (Macaca fascicularis) were selected for this study because the TTR mRNA of Cynomolgus monkeys is homologous to human TTR mRNA, making them a good model for screening the potency of UNA oligomers targeting to TTR mRNA.
In this study, the knockdown of Transthyretin protein was evaluated as a result of treatment with UNA oligomers targeting Transthyretin TTR mRNA, based on SEQ ID NOs:46/86, 59/99, and 60/100, delivered in a liposomal formulation to male Cynomolgus monkeys. Measurements were made following a single intravenous (IV) dose administration. TTR protein concentration in plasma samples was assessed by LC-MS/MS at various time points.
Animals in Groups 1 through 8 were administered the test articles on Day 1 at 0.3 mg/kg, dose volume 6.25 mL/kg, concentration 0.048 mg/mL. Doses were administered as a 15-minute intravenous (IV) infusion, +1 minute, using a pump and disposable syringe.
For each animal, infusion start and end times were recorded; and subsequent sample collection target times were determined based on infusion end time (t=0). All blood specimens, approximately 1 mL, were collected by venipuncture from a peripheral vein from restrained, conscious animals.
The Monkey TTR SRM assay was used, which is a high throughput absolute protein quantitation assay using Selected Reaction Monitoring (SRM) technology platform. In a single SRM assay, the panel can multiplex up to 200 proteins. The assay was performed on a targeted absolute protein quantitation platform, where the key technology was SRM, sometimes also referred to as Multiple Reaction Monitoring (MRM). In a triple-quadrupole (QQQ) mass spectrometer, SRM/MRM is a tandem selection process where selecting peptides by precursor m/z is followed by selecting fragmentations (transitions) of the targeted peptide.

CCCCCC/C=C\COC(=O)CCCCCCCN(CCCCCCCC(=O)OC/C=C\CCCCCC)C(=O)CSCCCN(CC)CC [ATX- 008]
pKa [1]: 10

CCCCCC/C=C\COC(=O)CCCCCCCN(CCCCCCCC(=O)OC/C=C\CCCCCC)C(=O)SCCCN(CC)CC [ATX- 012]
pKa [1]: 10

ĞCCAUGCAUGUGUUCAGAAŨmU / UUCUGÃACACAUGCAUGGCŨmU (chain 1 GCCAUGCAUGUGUUCAGAAUU; chain 2 UUCUGAACACAUGCAUGGCUU; siRNA; chain 1: sugars from the 5' end [UNA]1 r18 [UNA]1 m1, backbone not given here; chain 2: sugars from the 5' end r5 [UNA]1 r13 [UNA]1 m1, backbone not given here) [P16U6]
activity compared to the conventional siRNA, each targeted to V30M [2]: superior to the activity of the conventional siRNA V30M-P16 | selectivity against V30M over V30V compared to the conventional siRNA [2]: substantially greater than for the conventional siRNA V30M-P16 | silencing V30M TTR [2]: effective in silencing V30M TTR | superiority of selectivity over the selectivity of 5.6 of the conventional siRNA [2]: 4 fold | selectivity against V30M over V30V [2]: 23 | IC50 [2]: 0.0924 nM | effectiveness against V30M compared with V30V [2]: more effective against V30M than V30V | IC50 [3]: 2.12 nM

ĞGCCAUGCAUGUGUUCAGAŨmU / UCUGAACACAUGCAŨGGCCŨmU (chain 1 GGCCAUGCAUGUGUUCAGAUU; chain 2 UCUGAACACAUGCAUGGCCUU; siRNA; chain 1: sugars from the 5' end [UNA]1 r18 [UNA]1 m1, backbone not given here; chain 2: sugars from the 5' end r14 [UNA]1 r4 [UNA]1 m1, backbone not given here) [P15U15]
selectivity against V30M over V30V compared to the conventional siRNA [2]: substantially greater than for the conventional siRNA V30M-P15 | silencing V30M TTR [2]: effective in silencing V30M TTR | effectiveness against V30M compared with V30V [2]: more effective against V30M than V30V

ĞGCCAUGCAUGUGUUCAGAŨmU / UCUGAACACAUGCÃUGGCCŨmU (chain 1 GGCCAUGCAUGUGUUCAGAUU; chain 2 UCUGAACACAUGCAUGGCCUU; siRNA; chain 1: sugars from the 5' end [UNA]1 r18 [UNA]1 m1, backbone not given here; chain 2: sugars from the 5' end r13 [UNA]1 r5 [UNA]1 m1, backbone not given here) [P15U14]
silencing V30M TTR [2]: effective in silencing V30M TTR

ĞGCCAUGCAUGUGUUCAGAŨmU / UCUGAAĈACAUGCAUGGCCŨmU (chain 1 GGCCAUGCAUGUGUUCAGAUU; chain 2 UCUGAACACAUGCAUGGCCUU; siRNA; chain 1: sugars from the 5' end [UNA]1 r18 [UNA]1 m1, backbone not given here; chain 2: sugars from the 5' end r6 [UNA]1 r12 [UNA]1 m1, backbone not given here) [P15U7]
selectivity against V30M over V30V compared to the conventional siRNA [2]: substantially greater than for the conventional siRNA V30M-P15 | silencing V30M TTR [2]: effective in silencing V30M TTR | effectiveness against V30M compared with V30V [2]: more effective against V30M than V30V

ĞGCCAUGCAUGUGUUCAGAŨmU / UCUGAÃCACAUGCAUGGCCŨmU (chain 1 GGCCAUGCAUGUGUUCAGAUU; chain 2 UCUGAACACAUGCAUGGCCUU; siRNA; chain 1: sugars from the 5' end [UNA]1 r18 [UNA]1 m1, backbone not given here; chain 2: sugars from the 5' end r5 [UNA]1 r13 [UNA]1 m1, backbone not given here) [P15U6]
activity compared to the conventional siRNA, each targeted to V30M [2]: superior to the activity of the conventional siRNA V30M-P15 | selectivity against V30M over V30V compared to the conventional siRNA [2]: substantially greater than for the conventional siRNA V30M-P15 | silencing V30M TTR [2]: effective in silencing V30M TTR | superiority of selectivity over the selectivity of 5.6 of the conventional siRNA [2]: 4 fold | selectivity against V30M over V30V [2]: 24 | IC50 [2]: 0.0376 nM | effectiveness against V30M compared with V30V [2]: more effective against V30M than V30V | IC50 [3]: 0.92 nM

ŨAACCAAGAGUAUUCCAUUŨmU / AAUGGAAUACUCUUGGUUAŨmU (chain 1 UAACCAAGAGUAUUCCAUUUU; chain 2 AAUGGAAUACUCUUGGUUAUU; siRNA; chain 1: sugars from the 5' end [UNA]1 r18 [UNA]1 m1, backbone not given here; chain 2: sugars from the 5' end r19 [UNA]1 m1, backbone not given here) [SEQ ID NO:60/100]
knockdown of TTR (Transthyretin TTR mRNA; at 20 days, single IV dose 0.3 mg/kg, primates): over 91% | knockdown of TTR (Transthyretin TTR mRNA; continuous duration of more than 20 days, single IV dose 0.3 mg/kg, primates): more than 70% | TTR protein levels (Transthyretin TTR mRNA; continuous duration of more than one month (30 days), single injection, primates): below 50% | knockdown of Transthyretin protein in vivo (Transthyretin TTR mRNA; liposomal formulation, male Cynomolgus monkeys, single IV dose 0.3 mg/kg, plasma): achieved
